Reference: patent US10239873B2, “7-azaindole or 4,7-diazaindole derivatives as IKKϵ epsilon and TBK1 inhibitor and pharmaceutical composition comprising same” (GREEN CROSS CORPORATION, priority 2015, dated 2019)

Molecular target: T1, TBK1 (Homo sapiens, UniProt Q9UHD2)
T1 construct: purchased Promega (Invitrogen is also named in the same bracket) V4158; PR8031B; V3991 (not assigned to the two kinases)
T1 sequence (Q9UHD2 1-729): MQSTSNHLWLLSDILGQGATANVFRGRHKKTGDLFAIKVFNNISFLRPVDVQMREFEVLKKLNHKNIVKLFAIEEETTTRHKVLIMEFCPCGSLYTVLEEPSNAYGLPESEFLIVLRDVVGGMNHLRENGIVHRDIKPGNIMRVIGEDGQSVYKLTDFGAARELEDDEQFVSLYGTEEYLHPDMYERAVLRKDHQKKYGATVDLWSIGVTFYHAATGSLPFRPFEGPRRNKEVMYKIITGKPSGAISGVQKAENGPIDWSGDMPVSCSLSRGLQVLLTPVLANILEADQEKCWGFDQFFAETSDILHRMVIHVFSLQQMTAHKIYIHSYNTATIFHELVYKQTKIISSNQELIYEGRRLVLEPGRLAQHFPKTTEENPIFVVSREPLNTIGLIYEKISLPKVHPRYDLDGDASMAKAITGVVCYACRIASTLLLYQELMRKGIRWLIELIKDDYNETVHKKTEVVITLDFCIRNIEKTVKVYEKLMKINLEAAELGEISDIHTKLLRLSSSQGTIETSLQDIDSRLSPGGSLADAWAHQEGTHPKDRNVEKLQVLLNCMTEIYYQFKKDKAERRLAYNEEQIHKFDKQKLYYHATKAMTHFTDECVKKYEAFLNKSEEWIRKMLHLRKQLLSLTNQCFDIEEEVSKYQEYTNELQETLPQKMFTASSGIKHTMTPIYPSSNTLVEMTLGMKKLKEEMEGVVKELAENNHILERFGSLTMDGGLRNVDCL
Experiment: ADP-Glo Kinase Assay, inhibition activity on TBK1
Type: biochemical
Procedure, shortened: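 Kinase activity measured with the ADP-Glo luminescent ADP-detection kit per manufacturer's protocol, using IKKε or TBK1 kinase enzyme systems. Reaction buffer: 40 mM Tris (pH 7.5), 20 mM MgCl2, 0.1 mg/mL BSA; luminescence read on a luminometer.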

`COc1ccc(-c2cnc3[nH]cc(C4=CCN(C(=O)c5cccs5)CC4C)c3c2)cc1OC` (centres unmarked) [Example 213, (4-(5-(3,4-dimethoxyphenyl)-1H-pyrrolo[2,3-b]pyridin-3-yl)-5-methyl-5,6-dihydropyridin-1(2H)-yl)(thiophen-2-yl)methanone] gave an IC50 of 180 nM.
`CC(C)(C)OC(=O)N1CC=C(c2c[nH]c3ncc(-c4cccc(S(N)(=O)=O)c4)cc23)CC1` [Example 151, tert-Butyl 4-(5-(3-sulfamoylphenyl)-1H-pyrrolo[2,3-b]pyridin-3-yl)-5,6-dihydropyridine-1(2H)-carboxylate] gave an IC50 of 42 nM.
`CCS(=O)(=O)c1cccc(-c2cnc3[nH]cc(C4=CCN(C(=O)c5cccs5)CC4)c3c2)c1` [Example 195, (4-(5-(3-(ethylsulfonyl)phenyl)-1H-pyrrolo[2,3-b]pyridin-3-yl)-5,6-dihydropyridin-1(2H)-yl)(thiophen-2-yl)methanone] showed an IC50 of 61 nM.
`CC(C)(C)OC(=O)N1CC=C(c2c[nH]c3ncc(-c4ccc(S(N)(=O)=O)cc4)cc23)CC1` [Example 152, tert-Butyl 4-(5-(4-sulfamoylphenyl)-1H-pyrrolo[2,3-b]pyridin-3-yl)-5,6-dihydropyridine-1(2H)-carboxylate] was tested, and the IC50 was 81 nM.
`CNS(=O)(=O)c1ccc(-c2cnc3[nH]cc(C4=CCN(C(=O)OC5CCCC5)CC4)c3c2)cc1` [Example 178, Cyclopentyl 4-(5-(4-(N-methylsulfamoyl)phenyl)-1H-pyrrolo[2,3-b]pyridin-3-yl)-5,6-dihydropyridine-1(2H)-carboxylate] gave an IC50 of 170 nM.
`CC(=O)Nc1ccc(-c2cnc3[nH]cc(C4=CCN(C(=O)OC(C)(C)C)CC4)c3c2)cc1` [Example 241, tert-butyl 4-(5-(4-acetamidophenyl)-1H-pyrrolo[2,3-b]pyridin-3-yl)-5,6-dihydropyridine-1(2H)-carboxylate] showed an IC50 of 170 nM.
`O=C(OC1CCCC1)N1CC=C(c2c[nH]c3ncc(-c4cccc(S(=O)(=O)N5CCOCC5)c4)cc23)CC1` [Example 180, Cyclopentyl 4-(5-(3-(morpholinosulfonyl)phenyl)-1H-pyrrolo[2,3-b]pyridin-3-yl)-5,6-dihydropyridine-1(2H)-carboxylate] showed an IC50 of 400 nM.
`COc1ccc(-c2cc3c(C4=CCN(C(=O)NC5CCCC5)CC4)c[nH]c3nc2N)cc1OC` [Example 226, 4-(6-amino-5-(3,4-dimethoxyphenyl)-1H-pyrrolo[2,3-b]pyridin-3-yl)-N-cyclopentyl-5,6-dihydropyridine-1(2H)-carboxamide] gave an IC50 of over 10000 nM.
For `COc1ccc(-c2cnc3[nH]cc(C4=CCN(C(=O)OC(C)C)CC4)c3c2)cc1OC` [Example 147, Isopropyl 4-(5-(3,4-dimethoxyphenyl)-1H-pyrrolo[2,3-b]pyridin-3-yl)-5,6-dihydropyridine-1(2H)-carboxylate], the IC50 was 110 nM.
Compound `O=C(O)Cc1ccc(-c2c[nH]c3ncc(-c4ccc(CN5CCOCC5)s4)cc23)cc1` [Example 247, 2-(4-(5-(5-(morpholinomethyl)thiophen-2-yl)-1H-pyrrolo[2,3-b]pyridin-3-yl)phenyl)acetic acid] has an IC50 of 1300 nM.
With `CCCOc1cccc(-c2cnc3[nH]cc(C4=CCN(C(=O)OC(C)(C)C)CC4)c3c2)c1` [Example 242, tert-butyl 4-(5-(3-propoxyphenyl)-1H-pyrrolo[2,3-b]pyridin-3-yl)-5,6-dihydropyridine-1(2H)-carboxylate] the IC50 was 1300 nM.
Work on `CN1CCN(Cc2ccc(-c3cnc4[nH]cc(C5=CCN(C(=O)NC6CCCC6)CC5)c4c3)s2)CC1` [Example 71, N-cyclopentyl-4-(5-(5-((4-methylpiperazin-1-yl)methyl)thiophen-2-yl)-1H-pyrrolo[2,3-b]pyridin-3-yl)-5,6-dihydropyridine-1(2H)-carboxamide] yielded an IC50 of 5 nM.
`CC(C)(C)OC(=O)N1CC=C(c2c[nH]c3ncc(-c4cccc(C#N)c4)cc23)CC1` [Example 169, tert-Butyl 4-(5-(3-cyanophenyl)-1H-pyrrolo[2,3-b]pyridin-3-yl)-5,6-dihydropyridine-1(2H)-carboxylate] showed an IC50 of 4500 nM.
Work on `COc1ccc(-c2cnc3[nH]cc(C4=CCN(C(=O)OC(C)(C)C)CCC4)c3c2)cc1OC` [Example 188, tert-Butyl 5-(5-(3,4-dimethoxyphenyl)-1H-pyrrolo[2,3-b]pyridin-3-yl)-2,3,4,7-tetrahydro-1H-azepine-1-carboxylate] yielded an IC50 of 4900 nM.
Compound `Cc1ccc(C(=O)N2CC=C(c3c[nH]c4ncc(-c5ccc(S(C)(=O)=O)cc5)cc34)CC2)s1` [Example 211, (4-(5-(4-(methylsulfonyl)phenyl)-1H-pyrrolo[2,3-b]pyridin-3-yl)-5,6-dihydropyridin-1(2H)-yl)(5-methylthiophen-2-yl)methanone] has an IC50 of 3500 nM.
`CC(C)(C)OC(=O)N1CC=C(c2c[nH]c3ncc(-c4ccc5c(c4)OCO5)cc23)CC1` [Example 160, tert-Butyl 4-(5-(benzo[d][1,3]dioxol-5-yl)-1H-pyrrolo[2,3-b]pyridin-3-yl)-5,6-dihydropyridine-1(2H)-carboxylate] showed an IC50 of 2000 nM.
`COc1ccccc1-c1cnc2[nH]cc(C3=CCN(C(=O)OC(C)(C)C)CC3)c2c1` [Example 244, tert-butyl 4-(5-(2-methoxyphenyl)-1H-pyrrolo[2,3-b]pyridin-3-yl)-5,6-dihydropyridine-1(2H)-carboxylate] gave an IC50 of 1800 nM.
`Cc1[nH]c2ncc(-c3ccc(S(N)(=O)=O)cc3)cc2c1C1=CCN(C(=O)NC2CCCC2)CC1` [Example 221, N-cyclopentyl-4-(2-methyl-5-(4-sulfamoylphenyl)-1H-pyrrolo[2,3-b]pyridin-3-yl)-5,6-dihydropyridine-1(2H)-carboxamide] was tested, and the IC50 was 2000 nM.
Work on `COc1ccc(-c2cnc3[nH]cc(C4=CCN(C(=O)NC5CCCC5)CC4C)c3c2)cc1OC` (centres unmarked) [Example 120, N-cyclopentyl-4-(5-(3,4-dimethoxyphenyl)-1H-pyrrolo[2,3-b]pyridin-3-yl)-5-methyl-5,6-dihydropyridine-1(2H)-carboxamide] yielded an IC50 of 84 nM.
In the case of `CC(C)(C)OC(=O)N1CC=C(c2c[nH]c3ncc(-c4ccc(S(C)(=O)=O)cc4)cc23)CC1` [Example 164, tert-Butyl 4-(5-(4-(methylsulfonyl)phenyl)-1H-pyrrolo[2,3-b]pyridin-3-yl)-5,6-dihydropyridine-1(2H)-carboxylate], the IC50 is reported as 250 nM.
Work on `CC1CN(C(=O)NC2CCCC2)CC=C1c1c[nH]c2ncc(-c3ccc(S(N)(=O)=O)cc3)cc12` (centres unmarked) [Example 124, N-cyclopentyl-5-methyl-4-(5-(4-sulfamoylphenyl)-1H-pyrrolo[2,3-b]pyridin-3-yl)-5,6-dihydropyridine-1(2H)-carboxamide] yielded an IC50 of 51 nM.
For `CC(C)(C)OC(=O)N1CC=C(c2c[nH]c3ncc(-c4ccc(C(=O)N5CCOCC5)cc4)cc23)CC1` [Example 155, tert-Butyl 4-(5-(4-(morpholine-4-carbonyl)phenyl)-1H-pyrrolo[2,3-b]pyridin-3-yl)-5,6-dihydropyridine-1(2H)-carboxylate], the IC50 was 39 nM.
`COC(=O)c1ccc(-c2cnc3[nH]cc(C4=CCN(C(=O)OC(C)(C)C)CC4)c3c2)cc1` [Example 167, tert-Butyl 4-(5-(4-(methoxycarbonyl)phenyl)-1H-pyrrolo[2,3-b]pyridin-3-yl)-5,6-dihydropyridine-1(2H)-carboxylate] gave an IC50 of 1600 nM.
`CS(=O)(=O)c1ccc(-c2cnc3[nH]cc(C4=CCN(C(=O)NC5CCCC5)CC4)c3c2)cc1` [Example 51, N-cyclopentyl-4-(5-(4-(methylsulfonyl)phenyl)-1H-pyrrolo[2,3-b]pyridin-3-yl)-5,6-dihydropyridine-1(2H)-carboxamide] was tested, and the IC50 was 51 nM.
Work on `CCCOC(=O)N1CC=C(c2c[nH]c3ncccc23)CC1` [Example 137, Propyl 4-(1H-pyrrolo[2,3-b]pyridin-3-yl)-5,6-dihydropyridine-1(2H)-carboxylate] yielded an IC50 of 440 nM.
Compound `COc1ccc(-c2cnc3[nH]cc(C4=CCN(C(=O)N(C)C5CCCC5)CC4)c3c2)cc1OC` [Example 220, N-cyclopentyl-4-(5-(3,4-dimethoxyphenyl)-1H-pyrrolo[2,3-b]pyridin-3-yl)-N-methyl-5,6-dihydropyridine-1(2H)-carboxamide] has an IC50 of 1300 nM.
For `CNS(=O)(=O)c1ccc(-c2cnc3[nH]cc(C4=CCN(C(=O)NC5CCCC5)CC4)c3c2)cc1` [Example 60, N-cyclopentyl-4-(5-(4-(N-methylsulfamoyl)phenyl)-1H-pyrrolo[2,3-b]pyridin-3-yl)-5,6-dihydropyridine-1(2H)-carboxamide], the IC50 was 38 nM.
For `O=C(Cc1ccc(-c2c[nH]c3ncc(-c4ccc(CN5CCOCC5)s4)cc23)cc1)NC1CCCC1` [Example 248, N-cyclopentyl-2-(4-(5-(5-(morpholinomethyl)thiophen-2-yl)-1H-pyrrolo[2,3-b]pyridin-3-yl)phenyl)acetamide 2,2,2-trifluoroacetate], the IC50 was 2100 nM.
`O=C(NC1CCCC1)N1CC=C(c2c[nH]c3ncc(-c4cccc(OCCN5CCOCC5)c4)cc23)CC1` [Example 68, N-cyclopentyl-4-(5-(3-(2-morpholinoethoxy)phenyl)-1H-pyrrolo[2,3-b]pyridin-3-yl)-5,6-dihydropyridine-1(2H)-carboxamide] was tested, and the IC50 was 64 nM.
